Literature values, collected in patent publication US10166212B2, “Oral use of zinc and copper gluconates in the treatment of digital dermatitis” (DANTRACE, priority 2015, dated 2019).

Experiments:
[1] = administered as pills of zinc oxide; remainder excreted in feces
[2] = system: digital dermatitis lesions

SMILES	zinc taken up by the digestive system [1]	healing rate, treatment vs. control group ([2]; by day 34, P=0.01)	overall positive effect (healing and improvement), treatment vs. control ([2]; by day 34, P=0.05)	healing rate (change to M0) ([2]; by day 34 post-treatment, 10 g salicylic acid powder in bandage vs chlortetracycline spray control)	proportion of lesions getting smaller, treatment vs. control ([2]; by days 14 and 34, P<0.08)	healing rates between treatment groups ([2]; days 3 and 14)
[O]=[Zn] [zinc oxide]	20%	–	–	–	–	–
O=C(O)c1ccccc1O [salicylic acid]	–	fivefold better	1.75 fold	13.6%	2.5 times	did not differ significantly
